# Values of other authors in US20240156798A1, “ANTIOXIDANT COMPOSITIONS AND METHODS OF USE” (Sanare Pharmaceuticals, priority 2022, published 2024).
# Entries after “also recorded” stand apart in the source; their conditions may differ. Like-named read-outs stand apart in the source and are kept apart here.
# What was measured:
# [1] = test system: acetic acid-induced experimental colitis; details: NAC 100 mg/kg for seven days
# [2] = test system: high fat diet induced NAFLD; details: for high fat diet induced NAFLD: mice fed a high fat diet
# [3] = test system: chemically induced colitis; details: in vivo
# [4] = test system: human retinal pigment epithelium (RPE)
# IBD = details: 168 patients, double blind, placebo-controlled
# dry eye = details: eye drop administration
# [5] = test system: normal tension glaucoma (NTG)
# [6] = test system: photo-induced retinal degeneration; details: intraperitoneal injection
# retinal degeneration = details: several models of neurodegeneration and damage, including retinal degeneration
# ocular alkali burn = details: in vivo
# [7] = test system: retinal ganglion cell (RCG) death after optic nerve crush
# U.C. = U.C. patients, open label
# [8] = test system: radiation induced alopecia; details: topical, human clinical trials
# ocular damage [9] = details: topical application, rhesus monkey
# ocular damage [10] = details: topical application, rat
# [11] = hundreds of animal models
# [12] = test system: experimentally induced glaucoma; details: C57BL/6J mice
# [13] = RPE from both positive and negative AMD donors
# [14] = systemic treatment, following optic nerve crush
compound,measurement,setting,value
"CC(=O)N[C@@H](CS)C(=O)O [NAC, N-acetyl-cysteine]",macroscopic and histological findings,[1],protective role
same,GSH concentration,[1]; compared to vehicle controls,restoration
same,NO concentration,[1]; compared to vehicle controls,restoration
same,colon tissue MPO activity,[1]; compared to vehicle controls,significant decrease
same,penetration to the posterior segment,retinitis pigmentosa; applied to the cornea,able to penetrate to the posterior segment
same,protecting the retina from oxidative damage,retinitis pigmentosa; applied topically to the eye,effective
same,glucose tolerance,[2]; HFD mice,improved
same,morphology of hepatic tissue,[2]; HFD mice,totally restored
same,hepatic steatosis and metabolic disturbances,"[2]; mice fed high fat diets (HFD), compared to normally fed mice",significantly reduced
same,chemically induced colitis,[3],Protects against chemically induced
same,basal GSH content,[4]; AMD RPE,increase
same,basal ROS,[4]; AMD RPE,reduction
same,GSH depletion,"[4]; H2O2, RPE from both positive and negative AMD donors",preventing
same,H2O2 induced cell death,[4]; [13],preventing
same,excessive ROS accumulation,[4]; [13],blocking
same,basal mitochondrial function (ATP),[4]; both groups of cells,improved
same,effect on primary cultures of human RPE,[4]; patients with AMD,positive (protective) effect
same,Phase 2 study result,IBD,Positive results in a Phase 2
same,levels of ROS and inflammasome signaling,dry eye,diminished
same,glutathione levels,[5]; EAAC1 KO mice,increased
same,oxidative stress and autophagy,[5]; EAAC1 KO mice,suppressed
same,effect on retinal degeneration,[5]; mouse model of NTG,protective effect
same,decline of retinal function,"[5]; mouse, in vivo",prevented
same,"retinal ganglion cells (RGC), NTG-like neurodegeneration","[5]; mouse, in vivo",protected
same,oxidation and ER stresses,[6],suppressed
same,ROS accumulation in the retina,[6]; Balb/c mouse,inhibiting
"C[C@H](CCC(=O)NCCS(=O)(=O)O)[C@H]1CC[C@H]2[C@@H]3[C@@H](O)C[C@@H]4C[C@H](O)CC[C@]4(C)[C@H]3CC[C@]12C [TUDCA, tauroursodeoxycholic acid]",progression of HFD induced NALFD,"[2]; TUDCA alone, mice",attenuate
same,high fat diet induced NAFLD,[2],markedly reduces
same,gut inflammation,"[2]; mouse, in vivo",attenuates; also recorded: ameliorating
same,intestinal barrier function,"[2]; mouse, in vivo",improves; also recorded: improving
same,intestinal fat transport,"[2]; mouse, in vivo",decreases; also recorded: decreasing
same,intestinal microbiota composition,"[2]; mouse, in vivo",modulates; also recorded: modulating
same,apoptosis following cellular injury,retinal degeneration,block
same,cornea and retina injury,ocular alkali burn,protect
same,ocular inflammation,ocular alkali burn,inhibit
same,chemically induced colitis,[3],Active against chemically induced colitis
same,retinal ganglion cells in the optic crush model,[7]; in vivo,Protects retinal ganglia cells in the optic; also recorded: Protects retinal ganglion cells in the optic
same,RCGs survival,[7]; [14],significantly enhanced
same,apoptosis,[7]; [14],suppressed
same,Phase 1 study testing efficacy and safety,U.C.,Positive results in an open label Phase 1; also recorded: Positive results in Phase 1 study testing
"4-hydroxy-2,2,6,6-tetramethylpiperidin-1-oxyl [TEMPOL]",radiation induced alopecia,[8],protect
same,Glutathione S-Transferase (GST) gene(s) expression,gene expression,significantly increased
same,TNFα regulation,gene expression,downregulates
same,expression levels of keratinocyte growth factor (KGF) gene,gene expression,statistically increased
same,expression of HIF-1α,gene expression,statistically decreased
same,expression of HIF-2α,gene expression,statistically decreased
same,expression of genes encoding for the 26s proteasome complex,gene expression,significantly decreased
same,expression of the ADIPOQ gene,gene expression,statistically increased
same,UNC5b,gene expression; cancer cells,significantly increases
same,high fat diet induced NAFLD,[2],Can treat and prevent NAFLD in mice
same,degree of both neutrophil inflammation and lipid peroxidation in the inflamed bowel,[3],Reduction in the degree of both neutrophil
same,ocular damage,ocular damage [9],decrease
same,ocular damage,ocular damage [10],decrease
same,safety concerns,[11],No safety concerns
same,neuro-inflammation in the ocular hypertensive retina and optic nerve,[12],decreased
